{"source": "patent US12036190B2", "about": "“Methods and compositions for the treatment of cytoplasmic glycogen storage disorders” (Duke University, priority 2015, dated 2024)", "key": {"G6pc−/− mice": {"system": "G6pc−/− mice", "assay": "Rapamycin treatment of GSD Ia (G6pc−/−) mice", "type": "in vivo", "conditions": "GSD Ia mouse livers, which began at 7-fold the levels of wildtype livers", "protocol": "Candidate drugs for restoring autophagy in the GSD Ia liver were evaluated. Rapamycin is known to both have potent effects on activating autophagy as an mTORC1 inhibitor, and to regulate lipid metabolism due to its effect upon mTORC1. GSD Ia mice were treated with rapamycin daily for 7 days prior to evaluating effects upon autophagy and lipid accumulation in the liver.\nG6pc−/− mice were given intraperitoneal injections of 5 mg/kg rapamycin suspended in 10% DMSO/90% PBS daily for 7 days starting on day 5 of life.\nTreatment was sufficient to normalize G6pc−/− mice to the naturally low WT triglyceride levels.\nHepatic glycogen content was further analyzed using PAS staining to stain for polysaccharides, including glycogen, in liver sections. […] This confirms our hypothesis that manipulating autophagy can reduce glycogen accumulation by breaking it down through alternate routes from the traditional one relying on G6Pase, bypassing the need for G6Pase in GSD Ia hepatocytes."}, "[1]": {"system": "patient with PRKAG2 pathogenic gene mutation", "assay": "Alglucosidase alfa ERT in a patient with PRKAG2 mutation", "type": "in vivo, human", "description": "A patient was born by caesarian section at 38 weeks gestation as a result of the nuchal cord being wrapped around their neck. The patient was noted to have hypotonia and generalized muscle weakness. They were are flexic and had feeding difficulties. The patient began developing severe lower respiratory infections which led to frequent admissions to the hospital. […] Following numerous recurrent pneumonias, and the history of muscle weakness, the patient's physicians raised Pompe disease as a potential diagnosis. […] Given the early findings of hypotonia and the low GAA enzyme activity, a diagnosis of non-classic infantile Pompe disease was made. The patient was initiated on ERT with alglucosdase alfa at a dose of 20 mg/kg every 2 weeks.\n[…], the patient started ERT. They were belly crawling asymmetrically and was unable to achieve sitting from a prone or supine position. Due to weakness in their neck and trunk flexors, the patient consistently sat with their trunk completely collapsed in kyphotic position and their head propped up in capital extension in a chin poke position. […] They were able to crawl more efficiently, to achieve sitting independently from a prone or supine position, and to pull themself up into a standing posture without aid. […] […], the patient was able to walk independently with an age appropriate gait pattern and to climb small steps as well as jump off them without support. They were also able to transition independently into and out of any position, which helped them participate more fully in activities appropriate for their age.\nBaseline assessments were done which included tests for AST (44 IU/L; normal range: <45 IU/L), ALT (20 IU/L; normal range: 9-80 IU/L), along with PT measures looking at muscle strength and function measures. […] Upon examination, the patient has developed more defined calf muscles, along with an improvement of […] strength and power. […] has grown physically stronger and has not had episodes in which […] lacks energy for consecutive days, becomes completely floppy, and is unable to hold their head up properly following a seizure.\nAt baseline, according to the MABC assessment, the patient achieved a Total Test Score of 68 ranking them in the 25th percentile. Five months after reinitiation of ERT, the patient achieved a Total Test Score of 73 on […] MABC assessment, ranking them in the 37th percentile. A minimal detectable change (MDC) for the MABC has been reported as 1.21 points, representing a true change in motor function. The results in this child show an increase of 5 points over 5 months, which is greater than the minimal important difference (MID) of the MABC, which has been reported as a change of 2.5 points shown over 6 months."}, "GSD IV mice": {"system": "GSD IV mice", "assay": "rhGAA enzyme replacement therapy in GSD IV mice", "type": "in vivo, mouse", "protocol": "(§1) Methods: A short-term study was conducted to determine the minimum effective dose (MED) of rhGAA treatment with 3 dosages: 20 mg/kg (human equivalent dose, n=6), 40 mg/kg (n=9), and 100 mg/kg (n=8). Male GSD IV mice received weekly intravenous injections of rhGAA were conducted for 4 week starting at age of 10 weeks. A group of age-matched untreated mice (n=8) were used as controls. To prevent anaphylactic reactions, the animals were administered 25 mg/kg diphenhydramine (i.p.) 10-15 min prior to enzyme administration. All mice were sacrificed 48 hours after the last injection following overnight fasting. Fresh tissues were immediately frozen and stored at −80° C. until use for GAA activity and glycogen content analyses. Protein concentration was measured using BCA method."}, "[2]": {"system": "primary muscle cells from GSD IIIa patients", "assay": "rhGAA on primary muscle cells from GSD IIIa patients", "type": "cell-based, human", "conditions": "GSD IIIa patient muscle cells", "protocol": "FIG. 32 illustrates an analysis of the skeletal muscle biopsies from two GSD IIIa patients, a person (Pt. 1) and a person (Pt. 2). […] (FIG. 32B) Under EM, occasional lysosomal glycogen 1 (identified at the end of arrow) was also seen in the myocytes (scale bar=1 μm). […] (FIG. 32E) GAA activity in normal and patient cells 48 h after adding recombinant human acid alpha-glucosidase (rhGAA, Myozyme*, alglucosidase alfa) treatment. […] The significance of differences between two different groups was assessed using the two-tailed, equal variance student T-test ([…])."}, "GSD III mice": {"system": "GSD III mice", "assay": "rhGAA enzyme replacement therapy in GSD III mice", "type": "in vivo, mouse", "protocol": "as §1, with “GSD III mice were used to test 3 dosages” for “A short-term study was conducted”, “treatment:” for “treatment with 3 dosages:”, “(n=6),” for “(human equivalent dose, n=6),”, “(n=5),” for “(n=9),”, “(n=7). Weekly” for “(n=8). Male GSD IV mice received weekly”"}, "[3]": {"system": "primary myoblasts from GSD IV mice", "assay": "rhGAA on primary myoblasts from GSD IV mice", "type": "cell-based, mouse", "protocol": "Primary myoblast cells were isolated from 7-day-old GSD IV mouse skeletal muscle. Early passage cells were seeded in 10-cm culture dishes with EMEM medium containing 10% FBS. When cells reached 90% confluence, rhGAA was added to the culture medium (final activity=1000 nmol/hr/ml). […]\nReduction of glycogen deposition in GSD IV mouse myoblasts by rhGAA treatment was also confirmed by immunofluorescence staining using a mouse anti-glycogen monoclonal antibody ESG1A9mAb."}, "[4]": {"conditions": "reassessment 5 months post ERT, initial 3"}, "[5]": {"conditions": "weekly for 4 weeks at 20, 40 or 100 mg/kg, data not shown"}, "[6]": {"conditions": "rhGAA 1000 nmol/hr/ml, 24 hours"}}, "note": "“And” between values parts separate entries of the source, which are not always exact repeats. Equal entries are not always repeated. “Also recorded” adds a separate entry of the source."}
{"compound": "CO[C@H]1C[C@@H]2CC[C@@H](C)[C@@](O)(O2)C(=O)C(=O)N2CCCC[C@H]2C(=O)O[C@H]([C@H](C)C[C@@H]2CC[C@@H](O)[C@H](OC)C2)CC(=O)[C@H](C)/C=C(\\C)[C@@H](O)[C@@H](OC)C(=O)[C@H](C)C[C@H](C)/C=C/C=C/C=C/1C", "note": "[Rapamycin, rapamycin]", "values": [{"measurement": "reduction of hepatic triglycerides", "setting": "G6pc−/− mice", "value": 50, "unit": "%"}]}
{"compound": "rhGAA: recombinant human acid alpha-glucosidase (rhGAA, Myozyme, alglucosidase alfa), FDA approved therapy for Pompe disease", "values": [{"measurement": "neurological, occupational therapy and physical therapy reports", "setting": "[1]; after five months of reinitiated ERT", "value": "significant improvement"}, {"measurement": "gross motor abilities", "setting": "[1]; first ERT course, 20 mg/kg every 2 weeks, three months after initiation", "value": "began improving"}, {"measurement": "Movement ABC increase of Total Score", "setting": "[1]; over 5 months of ERT", "value": 5, "unit": "points"}, {"measurement": "Movement ABC percentile increase", "setting": "[1]; over 5 months of ERT", "value": 12}, {"measurement": "Movement ABC Percentile", "setting": "[1]; re-assessment 5 months on ERT, pre-ERT 25th percentile", "value": "37 percentile and 37th percentile"}, {"measurement": "Movement ABC Total Score", "setting": "[1]; re-assessment 5 months on ERT, pre-ERT 68", "value": 73}, {"measurement": "M-FUN Fine Motor Scaled Score", "setting": "[1]; [4]", "value": "5 (considered mild/borderline"}, {"measurement": "M-FUN Gross Motor Scaled Score", "setting": "[1]; [4]", "value": "3 (considered very low/severe"}, {"measurement": "M-FUN Visual Motor Scaled Score", "setting": "[1]; reassessment 5 months post ERT, initial 6", "value": "9 (considered “average” or"}, {"measurement": "M-FUN Gross Motor Progress Score", "setting": "[1]; reassessment 5 months post ERT, initial 288", "value": 407}, {"measurement": "M-FUN Fine Motor Progress Score", "setting": "[1]; reassessment 5 months post ERT, initial 292", "value": 394}, {"measurement": "M-FUN Visual Motor Progress Score", "setting": "[1]; reassessment 5 months post ERT, initial 374", "value": 496}, {"measurement": "fatigue at assessment", "setting": "[1]; reassessment at five months of ERT", "value": "less fatigue"}, {"measurement": "GAA activity in heart, increase", "setting": "GSD IV mice; 20 mg/kg", "value": 1.7, "unit": "fold"}, {"measurement": "glycogen content in tissues", "setting": "GSD IV mice; 20 mg/kg", "value": "failed to reduce glycogen in any tissue; also recorded: not significant"}, {"measurement": "GAA activity in liver, increase over untreated controls", "setting": "GSD IV mice; 20 mg/kg weekly IV for 4 weeks", "value": 29, "unit": "folds"}, {"measurement": "decrease of liver glycogen", "setting": "GSD IV mice; 40 mg and 100 mg treatment", "value": "21-25%"}, {"measurement": "GAA activity in heart, increase", "setting": "GSD IV mice; 40 mg/kg", "value": 2.8, "unit": "fold"}, {"measurement": "change of glycogen content in liver", "setting": "GSD IV mice; 40 mg/kg", "value": "−21", "unit": "%"}, {"measurement": "GAA activity in liver, increase over untreated controls", "setting": "GSD IV mice; 40 mg/kg weekly IV for 4 weeks", "value": 48, "unit": "folds"}, {"measurement": "liver/body weight ratio", "setting": "GSD IV mice; 40 mg/kg, untreated 5.8±0.2%, p<0.05", "value": "5.0±0.2", "unit": "%"}, {"measurement": "plasma alanine aminotransferase (ALT)", "setting": "GSD IV mice; 40 mg/kg, untreated 1029±87 U/L, p<0.01", "value": "650±32", "unit": "U/L"}, {"measurement": "plasma aspartate aminotransferase (AST)", "setting": "GSD IV mice; 40 mg/kg, untreated 1059±93 U/L, p=0.074", "value": "849±50", "unit": "U/L"}, {"measurement": "GAA activity in skeletal muscles, increase", "setting": "GSD IV mice; 100 mg/kg", "value": 1.6, "unit": "folds"}, {"measurement": "change of glycogen content in liver", "setting": "GSD IV mice; 100 mg/kg", "value": "−25", "unit": "%"}, {"measurement": "GAA activity in liver, increase over untreated controls", "setting": "GSD IV mice; 100 mg/kg weekly IV for 4 weeks", "value": 67, "unit": "folds"}, {"measurement": "glycogen content in skeletal muscle", "setting": "GSD IV mice; 40 and 100 mg/kg", "value": "not in any skeletal muscle"}, {"measurement": "GAA activity in quadriceps, increase", "setting": "GSD IV mice; either dosage (20, 40 mg/kg)", "value": "negligible"}, {"measurement": "GAA activity in gastrocnemius, increase", "setting": "GSD IV mice; either treated group (20, 40 mg/kg)", "value": "less than 1 fold"}, {"measurement": "anti-GAA antibodies compared with those reported in GAA-KO mice", "setting": "GSD IV mice; [5]", "value": "significantly less"}, {"measurement": "glycogen content", "setting": "[2]", "value": "significantly reduced glycogen levels; also recorded: significantly reduced glycogen content; also recorded: significantly reduced glycogen concentration"}, {"measurement": "glycogen content in tissues", "setting": "GSD III mice; 20 mg treatment", "value": "did not affect glycogen content in any tissues"}, {"measurement": "decrease of liver glycogen", "setting": "GSD III mice; 40 mg and 100 mg treatment", "value": "24-25%"}, {"measurement": "glycogen content in heart", "setting": "GSD III mice; 40 mg and 100 mg treatments", "value": "significantly reduced glycogen contents"}, {"measurement": "glycogen content in liver", "setting": "GSD III mice; 40 mg and 100 mg treatments", "value": "significantly reduced glycogen contents"}, {"measurement": "ratio of liver/body weight", "setting": "GSD III mice; 40 mg and 100 mg treatments", "value": "reduced ratio of liver/body weight"}, {"measurement": "GAA enzyme uptake, order of GAA activity by tissue", "setting": "GSD III mice; weekly IV for 4 weeks", "value": "liver>heart>diaphragm>leg muscles"}, {"measurement": "anti-GAA antibodies compared with those reported in GAA-KO mice", "setting": "GSD III mice; [5]", "value": "significantly less"}, {"measurement": "reduction of glycogen (immunofluorescence, ESG1A9mAb)", "setting": "[3]; 4 hours", "value": "obvious"}, {"measurement": "reduction of glycogen (immunofluorescence, ESG1A9mAb)", "setting": "[3]; 24 hours", "value": "more evident"}, {"measurement": "decrease of glycogen content", "setting": "[3]; [6]", "value": 24, "unit": "%"}, {"measurement": "increase of GAA activity", "setting": "[3]; [6]", "value": 50, "unit": "%"}, {"measurement": "glycogen content", "setting": "[3]; versus untreated cells", "value": "significantly reduced glycogen content; also recorded: significantly (p<0.01) reduced"}]}
